Experimental data taken from US11390591B2, “2,4,6-trisubstituted s-triazine compound, preparation method therefor, and use thereof” (Aluda Pharmaceuticals, Inc., priority 2016, dated 2022).
Where two headings read alike, the source gives them in different places.

Columns and labels:
Format in all cases: cell-based
human glioma U87 cells = assay: Tumor cell vacuolization (methuosis) scoring, U87; set-up: key to Vacuolation Score: 5 scores were given when obvious vacuolization occurred at 10 nM; 4 scores at 31.6 nM; 3 scores at 100 nM; 2 scores at 316 nM; 1 score at 1000 nM; 0 score was given if no vacuolation occurred at any concentration; conditions: U87 cells, 0.01-3.160 μM, 96 hours, microscope
Method: FIG. 2. Vacuolization of tumor cells. 100 microliter culture medium (RPMI1640, 2 mmol glutamine, 10% fetal bovine serum) containing 10^3 human colon adenocarcinoma cells (HCT15) or human brain glioma cells (U87) and a solvent DMSO control or 100 nM #40 compound (L16) was plated into a 96-well cell culture plate, and cell morphological image was taken under a phase contrast microscope after cultured at 5% CO2 and 37° C. for 96 hours.
Some cells gradually became round and eventually bursted. These changes are consistent with the features of cell death by methuosis (FIG. 2).
In order to compare the ability of different compounds to cause cell vacuolization, 100 μL culture media (RPMI1640, 2 mmol glutamine, 10% fetal bovine serum) comprising 10^3 human glioma U87 cells and final concentrations of 0.01, 0.0316, 0.1, 0.316, 1.0, 3.160 μM respectively of the compounds to be tested were inoculated into a 96-well culture plate. After cultured at 5% CO2 and 37° C. for 96 hours, cell morphology was observed under a high-magnification microscope, and the ability of the compounds to cause cell vacuolization was scored. 5 scores were given when obvious vacuolization occurred at 10 nM, 4 scores at 31.6 nM, 3 scores at 100 nM, 2 scores at 316 nM, 1 score at 1000 nM, and 0 score was given if no vacuolation occurred at any concentration.

[1] = test system: cell lines of human non-small cell lung cancer (H522); assay: In vitro antineoplastic activity, MTT experiment, H522; conditions: H522 cells, 48 hours, highest concentration tested 31.6 μM (>30: inhibition rate <50%)
Method: (§1) MTT, RPM1640 culture medium, fetal bovine serum, 96-well plate, CO2 thermostatic incubator, American BIO-RAD680 microplate reader, cell lines of human non-small cell lung cancer (H522), and cell lines of human brain glioma (U87) were all obtained commercially.
(§2) (1) Cell inoculation: A single cell suspension was prepared with culture media supplemented with 10% fetal bovine serum, plated into a 96-well plate with 5000 cells per well, each well having a volume of 100 μL, and cultured overnight.
(§3) (2) Preparation of compound solutions: a DMSO stock solution of a compound was diluted on a sterile bench with a culture medium into 5 concentrations to be tested, wherein a double dilution was employed between two adjacent concentrations.
(§4) (3) The compound solutions of various concentrations were added into the 96-well plate cultured overnight, with 100 μL added per well, triplicated wells for each concentration. Since the peripheral wells can have edge effect and are susceptible to contamination, no cells or compounds were added thereto; instead, 100 μL culture solution was added as a blank. Additionally, 100% wells were set to contain the cells and 100 μL culture media without any compound. The plates were incubated in a thermostatic incubator at 37° C. for 48 hours.
(§5) (4) Staining: 10 μL MTT solution (5 mg/mL, prepared with PBS) was added into the 96-well plate for staining. After incubation for 4 hours, centrifugation was performed at 2500 rpm for 10 minutes. Then, a multiple pipette was used to suck the culture solution out of the wells carefully without sucking out the cells while the pipette tip faced downward. 150 μL DMSO was added and shaken on a shaker for 5-10 minutes. Crystals were allowed to dissolve fully, and an OD value for each well was measured using the microplate reader at 570 nm. The inhibition rate was calculated as follows: Inhibition rate (%)=(average OD value of 100% wells−average OD value of compound wells)/(average OD value of 100% wells−average OD value of blank wells)×100%

[2] = test system: cell lines of human brain glioma (U87); assay: In vitro antineoplastic activity, MTT experiment, U87
Method: as §1, §2, §3, §4, §5

[3] = U87 cells, MTT, 48 hours, highest concentration tested 31.6 μM, read-out: IC50(μM) U87
[4] = ability to inhibit cell proliferation, U87 (FIG. 3), unit inferred, read-out: IC50

SMILES | IC50 [1] | IC50 [2, 3] | IC50 [2, 4] | Vacuolation Score (human glioma U87 cells)
O=C(Nc1ccc(F)cc1)Nc1ccc(Nc2nc(/C=C/c3ccccc3)nc(N3CCOCC3)n2)cc1 [L2, (E)-1-(4-fluorophenyl)-3-(4-(4-(morpholin-1-yl)-6-styrenyl-1,3,5-triazinyl-2-amino)phenyl)urea] | 2.8 ± 0.21 µM | 4.75 ± 0.87 µM | 4.74 µM | 4.5
CN(C)CCNC(=O)c1ccc(NC(=O)Nc2ccc(Nc3nc(/C=C/c4ccccc4)nc(N4CCOCC4)n3)cc2)cc1 [L32, (E)-N-(2-(dimethylamino)ethyl)-4-(3-(4-(4-(morpholin-1-yl)-6-styrenyl-1,3,5-triazinyl-2-amino)phenyl)urea)benzamide] | 5.03 ± 0.4 µM | 2.48 ± 0.44 µM | 2.8 µM | 4.5
O=C(Nc1ccc(Nc2nc(/C=C/c3ccccc3)nc(N3CCOCC3)n2)cc1)Nc1ccc(C(=O)NCCN2CCCC2)cc1 [L35, (E)-N-(2-(pyrrolidin-1-yl)ethyl)-4-(3-(4-(4-(morpholin-1-yl)-6-styrenyl-1,3,5-triazinyl-2-amino)phenyl)urea)benzamide] | 4.14 ± 0.13 µM | 1.43 ± 0.1 µM | 2.1 µM | 1 (1 score at 1000 nM)
CN1CCN(C(=O)c2ccc(NC(=O)Nc3ccc(Nc4nc(/C=C/c5ccccc5)nc(N5CCOCC5)n4)cc3)cc2)CC1 [L31, (E)-1-(4-((4-methylpiperazin-1-yl)formyl)phenyl)-3-(4-(4-(morpholin-1-yl)-6-styrenyl-1,3,5-triazinyl-2-amino)phenyl)urea] | 1.05 ± 0.04 µM | 0.23 ± 0.01 µM | 0.22 µM | 2.5
O=C(Nc1ccc(Nc2nc(/C=C/c3ccccc3)nc(N3CCOCC3)n2)cc1)Nc1ccc(C(=O)NCCN2CCCCC2)cc1 [L36, (E)-N-(2-(piperidin-1-yl)ethyl)-4-(3-(4-(4-(morpholin-1-yl)-6-styrenyl-1,3,5-triazinyl-2-amino)phenyl)urea)benzamide] | 3.69 ± 0.44 µM | 1.11 ± 0.06 µM | 1.25 µM | 1 (1 score at 1000 nM)
O=C(Nc1ccc(Nc2nc(/C=C/c3ccccc3)nc(N3CCOCC3)n2)cc1)Nc1ccc(C(=O)NCCN2CCOCC2)cc1 [L37, (E)-N-(2-(morpholin-1-yl)ethyl)-4-(3-(4-(4-(morpholin-1-yl)-6-styrenyl-1,3,5-triazinyl-2-amino)phenyl)urea)benzamide] | 5.19 ± 1.48 µM | 0.55 ± 0.05 µM | 0.82 µM | 3.5
CC1CCN(C(=O)c2ccc(NC(=O)Nc3ccc(Nc4nc(/C=C/c5ccccc5)nc(N5CCOCC5)n4)cc3)cc2)CC1 [L30, (E)-1-(4-((4-methylpiperidin-1-yl)formyl)phenyl)-3-(4-(4-(morpholin-1-yl)-6-styrenyl-1,3,5-triazinyl-2-amino)phenyl)urea] | 5.24 ± 1.33 µM | 0.87 ± 0.08 µM | 0.9 µM | 0
O=C(Nc1ccc(Cl)cc1)Nc1ccc(Nc2nc(/C=C/c3ccccc3)nc(N3CC(O)C3)n2)cc1 [L5, (E)-1-(4-chlorophenyl)-3-(4-(4-(3-hydroxyazetidin-1-yl)-6-styrenyl-1,3,5-triazinyl-2-amino)phenyl)urea] | 5.03 ± 0.89 µM | 3.32 ± 0.45 µM | 3.28 µM | 0

Further lines, with some results ahead:

IC50 [1] | IC50 [2, 3] | IC50 [2, 4] | SMILES | Vacuolation Score (human glioma U87 cells)
1.53 ± 0.22 µM | 1.49 ± 0.22 µM | 1.5 µM | CN1CCN(c2nc(/C=C/c3cccc([N+](=O)[O-])c3)nc(Nc3cccc(NC(=O)Nc4ccc(Cl)cc4)c3)n2)CC1 [L28, (E)-1-(4-chlorophenyl)-3-(3-(4-(4-methylpiperazin-1-yl)-6-(3-nitrostyrenyl)-1,3,5-triazinyl-2-amino)phenyl)urea] | 0
1.82 ± 0.09 µM | 1.21 ± 0.16 µM | 1.21 µM | CN1CCN(c2nc(/C=C/c3cccc(Cl)c3)nc(Nc3ccc(NC(=O)Nc4ccc(Cl)cc4)cc3)n2)CC1 [L8, (E)-1-(4-chlorophenyl)-3-(4-(4-(4-methylpiperazin-1-yl)-6-(3-chlorostyrenyl)-1,3,5-triazinyl-2-amino)phenyl)urea] | 0
1.92 ± 0.19 µM | 1.19 ± 0.07 µM | 1.19 µM | CN1CCN(c2nc(/C=C/c3ccccc3)nc(Nc3ccc(NC(=O)Nc4ccc(F)cc4)cc3)n2)CC1 [L4, (E)-1-(4-fluorophenyl)-3-(4-(4-(4-methylpiperazin-1-yl)-6-styrenyl-1,3,5-triazinyl-2-amino)phenyl)urea] | 0
2.53 ± 0.28 µM | 2.2 ± 0.21 µM | 2.2 µM | O=C(Nc1ccc(Cl)cc1)Nc1cccc(Nc2nc(/C=C/c3cccc(Cl)c3)nc(N3CCOCC3)n2)c1 [L25, (E)-1-(4-chlorophenyl)-3-(3-(4-(morpholin-1-yl)-6-(3-chlorostyrenyl)-1,3,5-triazinyl-2-amino)phenyl)urea] | 0
1.42 ± 0.12 µM | 1.33 ± 0.13 µM | 1.32 µM | O=C(Nc1ccc(F)cc1)Nc1ccc(Nc2nc(/C=C/c3cccc(Cl)c3)nc(N3CCOCC3)n2)cc1 [L7, (E)-1-(4-fluorophenyl)-3-(4-(4-(morpholin-1-yl)-6-(3-chlorostyrenyl)-1,3,5-triazinyl-2-amino)phenyl)urea] | 4 (4 scores at 31.6 nM)
4.26 ± 0.1 µM | 2.92 ± 0.21 µM | 2.91 µM | CN1CCN(c2nc(/C=C/c3ccc(Cl)cc3)nc(Nc3ccc(NC(=O)Nc4cccc(F)c4)cc3)n2)CC1 [L15, (E)-1-(3-fluorophenyl)-3-(4-(4-(4-methylpiperazin-1-yl)-6-(4-chlorostyrenyl)-1,3,5-triazinyl-2-amino)phenyl)urea] | 0
1.44 ± 0.1 µM | 1 ± 0.06 µM | 1 µM | O=C(Nc1ccc(Cl)cc1)Nc1cccc(Nc2nc(/C=C/c3ccccc3)nc(N3CCOCC3)n2)c1 [L23, (E)-1-(4-chlorophenyl)-3-(3-(4-(morpholin-1-yl)-6-styrenyl-1,3,5-triazinyl-2-amino)phenyl)urea] | 0
2.55 ± 0.12 µM | 4.41 ± 0.43 µM | 4.43 µM | O=C(Nc1ccc(Nc2nc(/C=C/c3ccc(Cl)cc3)nc(N3CCOCC3)n2)cc1)Nc1cccc(F)c1 [L12, (E)-1-(3-fluorophenyl)-3-(4-(4-(morpholin-1-yl)-6-(4-chlorostyrenyl)-1,3,5-triazinyl-2-amino)phenyl)urea] | 2 (2 scores at 316 nM)
1.34 ± 0.22 µM | 1.62 ± 0.09 µM | 1.8 µM | CN1CCN(c2nc(/C=C/c3cccc([N+](=O)[O-])c3)nc(Nc3ccc(NC(=O)Nc4ccc(F)cc4)cc3)n2)CC1 [L19, (E)-1-(4-fluorophenyl)-3-(4-(4-(4-methylpiperazin-1-yl)-6-(3-nitrostyrenyl)-1,3,5-triazinyl-2-amino)phenyl)urea] | 0
5.48 ± 0.76 µM | 3.95 ± 0.67 µM | 3.94 µM | CN1CCN(c2nc(/C=C/c3cccc(Cl)c3)nc(Nc3cccc(NC(=O)Nc4ccc(Cl)cc4)c3)n2)CC1 [L26, (E)-1-(4-chlorophenyl)-3-(3-(4-(4-methylpiperazin-1-yl)-6-(3-chlorostyrenyl)-1,3,5-triazinyl-2-amino)phenyl)urea] | 0
2.21 ± 0.33 µM | 3.66 ± 0.55 µM | 3.66 µM | O=C(Nc1ccc(Cl)cc1)Nc1cccc(Nc2nc(/C=C/c3cccc([N+](=O)[O-])c3)nc(N3CCOCC3)n2)c1 [L27, (E)-1-(4-chlorophenyl)-3-(3-(4-(morpholin-1-yl)-6-(3-nitrostyrenyl)-1,3,5-triazinyl-2-amino)phenyl)urea] | 0
